{"source": "patent US7157555B1", "about": "“Exendin agonist compounds” (Amylin Pharmaceuticals, Inc., priority 1997, dated 2007)", "test_system": "gastric emptying in rats", "test": "Gastric emptying in rats (phenol red gel gavage)", "assay_type": "in vivo, Male Harlan Sprague Dawley (HSD) rats", "description": "This experiment followed a modification of the method of Scarpignato, et al., Arch.\nMale Harlan Sprague Dawley (HSD) rats were used.\nThe determination of gastric emptying by the method described below was performed after a fast of −20 hours to ensure that the stomach contained no chyme that would interfere with spectrophotometric absorbance measurements.\nTwenty minutes after gavage, rats were anesthetized using 5% halothane, the stomach exposed and clamped at the pyloric and lower esophageal sphincters using artery forceps, removed and opened into an alkaline solution which was made up to a fixed volume. Stomach content was derived from the intensity of the phenol red in the alkaline solution, measured by absorbance at a wavelength of 560 nm. In separate experiments on 7 rats, the stomach and small intestine were both excised and opened into an alkaline solution. […] To account for a maximal dye recovery of less than 100%, percent of stomach contents remaining after 20 min were expressed as a fraction of the gastric contents recovered from control rats sacrificed immediately after gavage in the same experiment. Percent gastric contents remaining=(absorbance at 20 min)/(absorbance at 0 mm)×100.\nIn baseline studies, with no drug treatment, gastric emptying over 20 min was determined.", "data": [{"substance": "exendin-4 acid: exendin agonist; synthesized according to standard peptide synthesis methods", "values": [{"measurement": "EC50 (inhibition of gastric emptying)", "setting": "conscious rats, gastric contents remaining 20 min after gavage, dose-response", "result": 0.12, "unit": "µg"}, {"measurement": "Inhibition of gastric emptying (in words)", "setting": "rats, FIG. 6 and Table II", "result": "potent inhibitors of gastric emptying"}]}]}
